# Where “and” joins values, the source holds several entries; their conditions need not be identical. Identical values can stand only once. Like-named read-outs stand apart in the source and are kept apart here.
# What was measured:
# [1] = system: cyanobacteria; type: cell-based
# [2] = system: cyanobacteria; type: cell-based; remark: listed apart in the source
compound,measurement,setting,value
O=[N+]([O-])[O-].[Ag+] [Silver nitrate],effectiveness as a lytic agent,[1],as effective as silver sulfate as a lytic agent
"CCCCCCCCCCCCOS(=O)(=O)[O-].[Na+] [SDS, reference compound]",Microcystin concentration determined by the assay,[2]; 0.1%,14.13 ppb
Triton X-100 [reference compound],Microcystin concentration determined by the assay,[2],2.92 ppb and 2.52 ppb and 2.55 ppb
"O=S(=O)([O-])[O-].O=S(=O)([O-])[O-].O=S(=O)([O-])[O-].[Al+3].[Al+3] [Al2(SO4)3, reference compound]",Microcystin concentration determined by the assay,[2]; 100 ppm,0.45 ppb
"O=S(=O)([O-])[O-].[Cu+2] [CuSO4, copper sulfate]",Microcystin concentration determined by the assay,[2]; 10 ppm,2.40 ppb
same,Microcystin concentration determined by the assay,[2]; 100 ppm,2.31 ppb
same,Microcystin concentration determined by the assay,[2]; 1000 ppm,7.25 ppb and 5.17 ppb
same,Microcystin concentration determined by the assay,[2]; 1000 ppm for 10 min,4.28 ppb
same,Microcystin concentration determined by the assay,[2]; 1000 ppm for 20 min,4.96 ppb
same,Microcystin concentration determined by the assay,[2]; 1000 ppm for 30 min,5.64 ppb
same,Microcystin concentration determined by the assay,[2]; 5000 ppm,4.79 ppb

# From US11035856B1 (priority 2007, dated 2021)
